Consider 1 molecule from doi:10.1101/2024.12.12.628185v1 (biorxiv, 2024).

What is called IC50 is the concentration that gives 50% inhibition. Read a low IC50 as greater potency.

The assay deals with T1, ERα (purified full-length human ERα) (Homo sapiens, UniProt P03372).
T1 sequence (P03372 1-595): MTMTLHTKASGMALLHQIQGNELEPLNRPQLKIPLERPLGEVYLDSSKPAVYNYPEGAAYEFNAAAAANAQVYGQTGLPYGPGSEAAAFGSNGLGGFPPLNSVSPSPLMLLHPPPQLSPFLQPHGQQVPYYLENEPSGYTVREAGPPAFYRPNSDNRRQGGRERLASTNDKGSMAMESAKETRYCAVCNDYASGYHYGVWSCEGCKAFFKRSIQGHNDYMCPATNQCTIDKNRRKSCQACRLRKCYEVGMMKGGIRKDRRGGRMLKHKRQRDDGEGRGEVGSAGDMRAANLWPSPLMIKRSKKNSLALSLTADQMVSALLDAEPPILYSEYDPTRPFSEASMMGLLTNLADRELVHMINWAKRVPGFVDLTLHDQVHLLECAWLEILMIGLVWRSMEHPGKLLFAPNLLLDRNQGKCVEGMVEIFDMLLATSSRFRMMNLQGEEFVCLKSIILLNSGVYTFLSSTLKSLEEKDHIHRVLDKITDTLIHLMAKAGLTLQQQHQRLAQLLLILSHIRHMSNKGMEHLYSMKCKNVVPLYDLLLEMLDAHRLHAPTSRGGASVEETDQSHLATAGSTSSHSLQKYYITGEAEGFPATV
Put plainly: biochemical. The format is binding.

Take `CCCCC(CC)COC(=O)c1ccccc1C(=O)OCC(CC)CCCC` (stereo not shown) [DEHP]: the 50% inhibitory concentration (IC50) is roughly 500 µM.
